Consider ten molecules from patent publication US12479816B2, “20-HETE formation inhibitors” (UNIVERSITY OF PITTSBURGH—OF THE COMMONWEALTH SYSTEM OF …, priority 2019, dated 2025).

The IC50 is the concentration needed to halve the response being measured. Higher therefore signals a need for much substance.

For data set [1], the system named is 20-HETE formation (CYP4) in HLM. Description: IC50 determination, 20-HETE formation in HLM. The class given is biochemical, human. As to conditions: HLM 300 μg/ml, AA 100 μM, 12 concentrations. The method in brief:
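Human or rat liver microsomes (300 μg/ml) with arachidonic acid 100 μM, NADPH 1 mM, compound at 12 concentrations (0.1 nM-50 μM) in phosphate/MgCl2 buffer, 20 min at 37 °C. 20-HETE quantified by UPLC-MS/MS against d6 internal standard, normalised to vehicle; IC50 by nonlinear regression.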

A further data set addresses T1, rCYP4F2 (Homo sapiens, UniProt P78329).
T1 sequence (P78329 5-520): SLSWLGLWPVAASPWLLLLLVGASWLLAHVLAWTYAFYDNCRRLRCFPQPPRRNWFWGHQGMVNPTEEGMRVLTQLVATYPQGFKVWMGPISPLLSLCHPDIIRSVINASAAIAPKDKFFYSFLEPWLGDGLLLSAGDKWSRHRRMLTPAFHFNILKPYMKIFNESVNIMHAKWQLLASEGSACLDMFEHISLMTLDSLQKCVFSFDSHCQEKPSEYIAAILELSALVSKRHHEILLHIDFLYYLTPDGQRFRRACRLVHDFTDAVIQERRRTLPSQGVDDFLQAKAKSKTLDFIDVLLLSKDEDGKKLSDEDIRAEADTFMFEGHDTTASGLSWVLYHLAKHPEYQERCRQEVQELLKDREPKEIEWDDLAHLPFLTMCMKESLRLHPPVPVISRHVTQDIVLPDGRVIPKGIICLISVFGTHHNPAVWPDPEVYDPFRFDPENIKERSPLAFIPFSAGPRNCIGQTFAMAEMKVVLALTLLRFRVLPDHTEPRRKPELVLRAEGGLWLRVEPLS
The experiment in a line: Inhibition of 20-HETE formation at 250 or 500 nM in rCYP4F2 incubations. As to conditions: rCYP4F2 25 pmol/mL; for inhibition at 0.5 µM: 500 nM compound, read-out: rCYP4F2 % inh. @ 500 nM; for inhibition at 0.25 µM: 250 nM compound, read-out: rCYP4F2 % inh. @ 250 nM. The class given is biochemical. In outline: (§1)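 20-HETE formation, measured by UPLC-MS/MS after ether extraction, is reported as percentage of vehicle control, triplicates. Incubations: 300 μg/ml microsomal protein or 25 pmol/mL rCYP4F2, AA 100 μM, NADPH 1 mM, 20 min at 37° C.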

Data set [2] concerns 20-HETE formation (CYP4) in RLM. The experiment in a line: Inhibition of 20-HETE formation at 250 or 500 nM in RLM microsomal incubations. The class given is biochemical, rat. As to conditions: RLM 300 μg/ml; for RLM % inh. @ 500 nM: 500 nM compound; for RLM % inh. @ 250 nM: 250 nM compound. The method in brief:
as §1

Data set [3] can be described thus: Turbidometric solubility determination. As to conditions: PBS with 1% DMSO, aqueous buffer, kinetic from dmso stock, room temperature. The class given is physicochemical. The method in brief:
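Kinetic turbidimetric solubility: DMSO stocks diluted 1:100 into PBS in triplicate to give 0–600 μM in 1% DMSO. Shaken 2 h at room temperature, then OD620 read. Solubility limit taken as the concentration giving a statistically significant absorbance rise above background.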

For data set [4], the system named is 20-HETE formation (CYP4) in RKM. Description: Inhibition of 20-HETE formation at 250 or 500 nM in RKM microsomal incubations. The class given is biochemical, rat. As to conditions: RKM 300 μg/ml; for RKM % inh. @ 500 nM: 500 nM compound; for RKM % inh. @ 250 nM: 250 nM compound. The method in brief: as §1

Like-named read-outs stand apart in the source and are kept apart here.

In turn, `Clc1ccc(CC2CCN(c3cn[nH]c3)CC2)cc1` [Compound 93, 4-(4-Chlorobenzyl)-1-(1H-pyrazol-4-yl)piperidine] returned an IC50 in data set [1] of 0.017 µM. Besides, the inhibition at 0.5 µM on rCYP4F2 is 97%. Moreover, in data set [2], the “RLM % inh. @ 500 nM” value was found to be 64.30%. Besides, in data set [3] (OD620, read-out: Max Solub), the solubility at 2 h is 117 µM.
Taken in the same sequence, the figures for `O=C1CCCN1c1ccc(C2CCN(c3cn[nH]c3)CC2)cc1` [Compound 100, 1-(4-(1-(1H-Pyrazol-4-yl)piperidin-4-yl)phenyl)pyrrolidin-2-one] were 0.054 µM, 81.2%, 42.90% and 74 µM.
In data set [1], `COc1ccc(C2CCN(c3cn[nH]c3)CC2)cc1` [Compound 20, 4-(4-Methoxyphenyl)-1-(1H-pyrazol-4-yl)piperidine] came in with an IC50 of 0.07 µM. For the same molecule, the inhibition at 0.5 µM on rCYP4F2 stood at 67.7%. Moreover, in data set [4], the “RKM % inh. @ 500 nM” value is 4.90%. In data set [2], the “RLM % inh. @ 500 nM” value worked out at 25.90%. The solubility at 2 h was determined as 35 µM in data set [3] (OD620, read-out: Max Solub) and 9 µg/mL in data set [3] (read-out: Solubility_ug/mL).
`COc1ccc(C2CCN(c3ccn[nH]3)CC2)cc1` [Compound 19, 4-(4-Methoxyphenyl)-1-(1H-pyrazol-5-yl)piperidine] displayed an IC50 in data set [1] of 0.14 µM. The inhibition at 0.5 µM at rCYP4F2 was found to be 41.4%. Moreover, the “RKM % inh. @ 500 nM” value in data set [4] came to 0.00%. Further, the “RLM % inh. @ 500 nM” value in data set [2] was determined as 31.80%. The solubility at 2 h in data set [3] (OD620, read-out: Max Solub) was 106 µM; in data set [3] (read-out: Solubility_ug/mL), 27.3 µg/mL.
In turn, `Cc1cccc(C2CCN(c3cn[nH]c3)CC2)c1` [Compound 34, 1-(1H-Pyrazol-4-yl)-4-(m-tolyl)piperidine] had a half-maximal inhibitory concentration (IC50) in data set [1] of 0.11 µM. Moreover, the inhibition at 0.5 µM on rCYP4F2 stood at 86%. In addition, in data set [4], the “RKM % inh. @ 500 nM” value turned out to be 36.00%. The “RLM % inh. @ 500 nM” value in data set [2] came out at 44.00%. The solubility at 2 h in data set [3] (OD620, read-out: Max Solub) is above 600 µM; in data set [3] (read-out: Solubility_ug/mL), 145 µg/mL.
For the molecule `c1ccc(C2CCN(c3ccn[nH]3)CC2)cc1` [Compound 54, 4-Phenyl-1-(1H-pyrazol-5-yl)piperidine], inhibition in data set [1] was half-maximal at 0.44 µM (IC50). For the same molecule, the inhibition at 0.25 µM on rCYP4F2 worked out at 53.6%. In data set [4], the “RKM % inh. @ 250 nM” value was determined as 0.00%. Further, the “RLM % inh. @ 250 nM” value in data set [2] came out at 12.00%. The solubility at 2 h in data set [3] (OD620, read-out: Max Solub) is above 600 µM; in data set [3] (read-out: Solubility_ug/mL) it was 137 µg/mL.
The molecule `O=C1CCCN1Cc1ccc(C2CCN(c3cn[nH]c3)CC2)cc1` [Compound 83, 1-(4-(1-(1H-Pyrazol-4-yl)piperidin-4-yl)benzyl)pyrrolidin-2-one] displayed an IC50 in data set [1] of 0.0542 µM. The inhibition at 0.5 µM on rCYP4F2 turned out to be 96.2%. Also, the “RLM % inh. @ 500 nM” value in data set [2] stood at 49.60%. In addition, the solubility at 2 h in data set [3] (OD620, read-out: Max Solub) is above 600 µM.
For the molecule `CC(=O)N(C)c1ccc(C2CCN(c3cn[nH]c3)CC2)cc1` [Compound 28, N-(4-(1-(1H-Pyrazol-4-yl)piperidin-4-yl)phenyl)-N-methylacetamide], in data set [1], the IC50 turned out to be 0.1 µM. Moreover, the inhibition at 0.5 µM at rCYP4F2 came to 58%. Further, the “RKM % inh. @ 500 nM” value in data set [4] is recorded as 43.00%. The “RLM % inh. @ 500 nM” value in data set [2] turned out to be 52.00%. The solubility at 2 h in data set [3] (OD620, read-out: Max Solub) was above 600 µM; in data set [3] (read-out: Solubility_ug/mL), 179 µg/mL.
The molecule `c1ccc(C2CCN(c3cn[nH]c3)CC2)cc1` [Compound 1, 4-Phenyl-1-(1H-pyrazol-4-yl)piperidine] gave an IC50 in data set [1] of 0.19 µM. For the same molecule, the inhibition at 0.25 µM at rCYP4F2 was found to be 78.5%. In addition, the “RKM % inh. @ 250 nM” value in data set [4] came to 18.00%. In addition, the “RLM % inh. @ 250 nM” value in data set [2] stood at 27.40%. Besides, the solubility at 2 h in data set [3] (OD620, read-out: Max Solub) amounted to 121 µM; in data set [3] (read-out: Solubility_ug/mL), 28 µg/mL.
`c1ccc(CC2CCN(c3cn[nH]c3)CC2)cc1` [Compound 3, 4-Benzyl-1-(1H-pyrazol-4-yl)piperidine] yielded an IC50 in data set [1] of 0.05 µM. Further, at rCYP4F2, the inhibition at 0.5 µM is 77%. The “RKM % inh. @ 500 nM” value in data set [4] is recorded as 0.00%. In addition, the “RLM % inh. @ 500 nM” value in data set [2] is given as 2.40%. The solubility at 2 h in data set [3] (OD620, read-out: Max Solub) was 505 µM; in data set [3] (read-out: Solubility_ug/mL), 122 µg/mL.
